According to PubChem BioAssay AID248 (DTP/NCI, 2004):
“And” between values parts separate entries of the source, which are not always exact repeats. Equal values may be shown once. Toxic doses and inconclusive results are not listed. Cut-off read from the data, not from the text of the source: active = T/C of 150% or more; inactive = T/C below 125%.

System: L1210 leukemia ip in BDF1 mice, survival T/C
Experiment: NCI In Vivo Anticancer Drug Screen. Data for tumor model L1210 Leukemia (intraperitoneal) in B6D2F1 (BDF1) mice
Conditions: endpoint: mean survival time, higher = longer survival
Outline: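 Tumor was transplanted into mice, which were then dosed with test compound or vehicle alone. Survival was recorded for each group, and the treated figure was expressed relative to the control figure.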

[1] = dose: 100.0 mg/kg/injection, schedule: Q01DX001 (ip), vehicle: saline
[2] = dose: 200.0 mg/kg/injection, schedule: Q01DX001 (ip), vehicle: saline
[3] = dose: 100.0 mg/kg/injection, schedule: Q04DX003 (ip), vehicle: saline
[4] = dose: 200.0 mg/kg/injection, schedule: Q04DX003 (ip), vehicle: saline
[5] = dose: 400.0 mg/kg/injection, schedule: Q04DX003 (ip), vehicle: saline
[6] = dose: 400.0 mg/kg/injection, schedule: Q01DX001 (ip), vehicle: saline
[7] = dose: 100.0 mg/kg/injection, schedule: Q01DX009 (ip), vehicle: saline with Tween-80
[8] = dose: 100.0 mg/kg/injection, schedule: Q04DX003 (ip), vehicle: saline with Tween-80
[9] = dose: 200.0 mg/kg/injection, schedule: Q01DX009 (ip), vehicle: saline with Tween-80
[10] = dose: 200.0 mg/kg/injection, schedule: Q04DX003 (ip), vehicle: saline with Tween-80
[11] = dose: 400.0 mg/kg/injection, schedule: Q01DX009 (ip), vehicle: saline with Tween-80
[12] = dose: 400.0 mg/kg/injection, schedule: Q04DX003 (ip), vehicle: saline with Tween-80
[13] = dose: 25.0 mg/kg/injection, schedule: Q01DX009 (ip), vehicle: Klucel (hydroxypropylcellulose) (HPC)
[14] = dose: 50.0 mg/kg/injection, schedule: Q01DX009 (ip), vehicle: Klucel (hydroxypropylcellulose) (HPC)
[15] = dose: 100.0 mg/kg/injection, schedule: Q01DX001 (ip), vehicle: saline with Tween-80
[16] = dose: 100.0 mg/kg/injection, schedule: Q04DX003 (ip), vehicle: Klucel (hydroxypropylcellulose) (HPC)
[17] = dose: 100.0 mg/kg/injection, schedule: Q01DX009 (ip), vehicle: Klucel (hydroxypropylcellulose) (HPC)
[18] = dose: 200.0 mg/kg/injection, schedule: Q01DX009 (ip), vehicle: Klucel (hydroxypropylcellulose) (HPC)
[19] = dose: 400.0 mg/kg/injection, schedule: Q01DX009 (ip), vehicle: Klucel (hydroxypropylcellulose) (HPC)
[20] = dose: 100.0 mg/kg/injection, schedule: Q01DX009 (ip), vehicle: saline
[21] = dose: 200.0 mg/kg/injection, schedule: Q01DX009 (ip), vehicle: saline
[22] = dose: 200.0 mg/kg/injection, schedule: Q04DX003 (ip), vehicle: Klucel (hydroxypropylcellulose) (HPC)
[23] = dose: 400.0 mg/kg/injection, schedule: Q04DX003 (ip), vehicle: Klucel (hydroxypropylcellulose) (HPC)
[24] = dose: 200.0 mg/kg/injection, schedule: Q01DX001 (ip), vehicle: saline with Tween-80
[25] = dose: 400.0 mg/kg/injection, schedule: Q01DX001 (ip), vehicle: saline with Tween-80

Measured: T/C

O=C(N/N=C\c1ccc(N(CCCl)CCCl)cc1[N+](=O)[O-])c1cccnc1
inactive: dose: 50.0 mg/kg/injection, schedule: Q01DX001 (ip), vehicle: saline 94 % of control | [1] 113 % of control | [2] 92 % of control

O=C(O)CCC(NC(=O)c1ccccc1)C(=O)O (stereo unspecified)
inactive: [3] 100 % of control | [4] 95 % of control | [5] 95 % of control

CC(C)COC(=O)C(C)OC(=O)OCCOCCOC(=O)OC(C)C(=O)OCC(C)C (stereo unspecified)
inactive: [1] 100 % of control | [2] 102 % of control | [6] 100 % of control

Cc1cc(C)c(NS(=O)(=O)c2ccccc2)c(C)n1
inactive: [7] 98 % of control and 100 % of control | [8] 96 % of control | [9] 91 % of control and 92 % of control | [10] 100 % of control | [11] 96 % of control and 97 % of control | [12] 96 % of control

CN(C)Cc1cccc([N+](=O)[O-])c1
inactive: dose: 25.0 mg/kg/injection, schedule: Q04DX003 (ip), vehicle: saline 88 % of control | dose: 50.0 mg/kg/injection, schedule: Q04DX003 (ip), vehicle: saline 98 % of control | [3] 102 % of control

Oc1ccccc1C=NCCN=Cc1ccccc1O.[Zn+2]
inactive: dose: 100.0 mg/kg/injection, schedule: Q01DX001 (ip), vehicle: other 103 % of control | dose: 200.0 mg/kg/injection, schedule: Q01DX001 (ip), vehicle: other 114 % of control | dose: 400.0 mg/kg/injection, schedule: Q01DX001 (ip), vehicle: other 100 % of control

CC(=O)NC1C(O)OC(COC(c2ccccc2)(c2ccccc2)c2ccccc2)C(O)C1O (stereo unspecified)
inactive: [1] 91 % of control | [2] 93 % of control | [6] 104 % of control

CC1(C)N=C(N)N=C(N)N1c1ccc(Cl)cc1Cl
inactive: dose: 20.0 mg/kg/injection, schedule: Q04DX003 (ip), vehicle: Klucel (hydroxypropylcellulose) (HPC) 104 % of control | dose: 25.0 mg/kg/injection, schedule: Q01DX001 (ip), vehicle: saline with Tween-80 97 % of control | [13] 105 % of control | dose: 40.0 mg/kg/injection, schedule: Q04DX003 (ip), vehicle: Klucel (hydroxypropylcellulose) (HPC) 100 % of control | dose: 50.0 mg/kg/injection, schedule: Q01DX001 (ip), vehicle: saline with Tween-80 93 % of control | [14] 94 % of control | dose: 80.0 mg/kg/injection, schedule: Q04DX003 (ip), vehicle: Klucel (hydroxypropylcellulose) (HPC) 94 % of control | [15] 97 % of control | [1] 100 % of control | [16] 94 % of control

CCOC(=O)c1[nH]c(C)c(CCCC(=O)O)c1C
inactive: dose: 75.0 mg/kg/injection, schedule: Q01DX001 (ip), vehicle: acetone 102 % of control | dose: 150.0 mg/kg/injection, schedule: Q01DX001 (ip), vehicle: acetone 104 % of control

BrC1CC2C3CCC(C3)C2C1Br (stereo unspecified)
inactive: dose: 50.0 mg/kg/injection, schedule: Q01DX001 (ip), vehicle: carboxymethylcellulose (CMC) 91 % of control | dose: 100.0 mg/kg/injection, schedule: Q01DX001 (ip), vehicle: carboxymethylcellulose (CMC) 93 % of control | dose: 200.0 mg/kg/injection, schedule: Q01DX001 (ip), vehicle: carboxymethylcellulose (CMC) 93 % of control | dose: 400.0 mg/kg/injection, schedule: Q01DX001 (ip), vehicle: carboxymethylcellulose (CMC) 93 % of control

NS(=O)(=O)c1ccc(NC(=O)Nc2ccc(Cl)cc2[N+](=O)[O-])cc1
inactive: [17] 94 % of control | [18] 91 % of control | [19] 86 % of control

CCCCCCCCCCCCCCCCCCNC(=S)N/N=C/c1ccccc1[N+](=O)[O-]
inactive: dose: 111.0 mg/kg/injection, schedule: Q01DX Z (ip), vehicle: methylcellulose (MC) 90 % of control | dose: 166.0 mg/kg/injection, schedule: Q01DX Z (ip), vehicle: methylcellulose (MC) 86 % of control

CCCCCCCC(=O)OCCCl
inactive: [20] 94 % of control | [21] 97 % of control | dose: 400.0 mg/kg/injection, schedule: Q01DX009 (ip), vehicle: saline 91 % of control

COc1cc(N(CCl)CCl)ccc1NC(=O)c1ccccc1
inactive: [16] 111 % of control | [22] 105 % of control | [23] 111 % of control

CCC(CO)NC(=O)/C=C/c1ccccc1 (stereo unspecified)
inactive: [15] 101 % of control | [8] 97 % of control | [24] 94 % of control | [10] 97 % of control | [25] 100 % of control | [12] 91 % of control

COc1ccccc1/C=N/NC(=O)c1cccc2ccccc12
inactive: [6] 87 % of control

CCCCCCC1CC(=O)CC(=O)C1
inactive: [1] 101 % of control | [2] 98 % of control | [6] 95 % of control

CCc1c[n+]([O-])c(C)cc1[N+](=O)[O-]
inactive: [20] 108 % of control | [3] 101 % of control | [21] 101 % of control | [4] 122 % of control | [5] 95 % of control

CC(CNC(=O)OCc1ccccc1)C(=O)O (stereo unspecified)
inactive: [15] 95 % of control | [7] 105 % of control and 117 % of control | dose: 100.0 mg/kg/injection, schedule: Q04DX002 (ip), vehicle: saline with Tween-80 103 % of control | [8] 96 % of control | [24] 93 % of control | [9] 105 % of control and 86 % of control | dose: 200.0 mg/kg/injection, schedule: Q04DX002 (ip), vehicle: saline with Tween-80 100 % of control | [10] 91 % of control | [25] 96 % of control | [11] 94 % of control and 105 % of control | dose: 400.0 mg/kg/injection, schedule: Q04DX002 (ip), vehicle: saline with Tween-80 110 % of control | [12] 95 % of control

C/C=C(/Cl)c1c(C)cc(C)cc1C
inactive: dose: 25.0 mg/kg/injection, schedule: Q01DX009 (ip), vehicle: saline with Tween-80 91 % of control | dose: 50.0 mg/kg/injection, schedule: Q01DX009 (ip), vehicle: saline with Tween-80 98 % of control | [7] 89 % of control and 91 % of control | [8] 101 % of control | [10] 98 % of control | [11] 98 % of control | [12] 101 % of control

O=S(=O)(Nc1ccc(NS(=O)(=O)c2ccccc2)nc1)c1ccccc1
inactive: [17] 96 % of control | [16] 101 % of control | [18] 98 % of control | [22] 97 % of control | [19] 101 % of control | [23] 101 % of control

O=C1C(=Cc2ccc([N+](=O)[O-])cc2)C(=O)c2ccccc21
inactive: dose: 12.5 mg/kg/injection, schedule: Q01DX009 (ip), vehicle: Klucel (hydroxypropylcellulose) (HPC) 93 % of control | dose: 12.5 mg/kg/injection, schedule: Q04DX003 (ip), vehicle: Klucel (hydroxypropylcellulose) (HPC) 97 % of control | [13] 88 % of control | dose: 25.0 mg/kg/injection, schedule: Q04DX003 (ip), vehicle: Klucel (hydroxypropylcellulose) (HPC) 90 % of control | [14] 98 % of control | dose: 50.0 mg/kg/injection, schedule: Q04DX003 (ip), vehicle: Klucel (hydroxypropylcellulose) (HPC) 93 % of control

OCC1OC(n2c(=S)[nH]c3ccccc32)C(O)C1O (stereo unspecified)
inactive: [1] 108 % of control | [2] 100 % of control | [6] 106 % of control

CC(=O)Nc1ccc(/C=N\NC(=S)Nc2ccccc2)cc1
inactive: [17] 107 % of control | [18] 93 % of control | [19] 94 % of control

c1ccc(N/N=C2/CSCc3ccccc32)cc1
inactive: [15] 97 % of control | [24] 95 % of control | [25] 106 % of control
